Data taken from patent publication US20250082633A1, “COMPOUNDS AND METHODS FOR MODULATING SPLICING” (REMIX THERAPEUTICS INC., priority 2021, published 2025).
Read-outs that look alike come from different tables or passages of the source.

What was measured:
Type in all cases: cell-based
[1] = tested on: Target C; assay: RT-qPCR splicing assay, gene panel, Target C canonical junction (CJ) mRNA; conditions: Homo sapiens; decrease in CJ mRNA levels; larger panel of genes; Table 3; read-out: Target C CJ IC50
Procedure, shortened: (§1)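 A673 (DMEM/10% FBS) or K562 (IMDM/10% FBS) cells were treated 24 h at 37 °C with an 11-point 3-fold dilution series, top final 10 uM, DMSO ≤0.25%. Lysates underwent one-step RT-qPCR for the canonical-junction isoform with GAPDH, GUSB or PPIA as housekeeper. ΔΔCt versus DMSO was converted to RQ (2^−ΔΔCt), then to percent response.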

[2] = tested on: MYB mRNA; assay: RT-qPCR splicing assay, MYB canonical (CJ) and alternative (AJ) junction mRNA; conditions: Homo sapiens; for IC50: read-out: MYB CJ IC50; for AC50: increase in alternative junction mRNA, read-out: MYB AJ AC50
Procedure, shortened: (§2)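 Splice-junction mRNAs (CJ, AJ) measured by TaqMan one-step RT-qPCR on cell lysates, using PPIA as reference for adherent A673 and GAPDH or GUSB for K562. Cells exposed for 24 h to 11 threefold concentrations up to 10 uM final, with DMSO at or below 0.25%.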

[3] = tested on: HTT mRNA; assay: RT-qPCR splicing assay, HTT canonical (CJ) and alternative (AJ) junction mRNA; conditions: Homo sapiens; for IC50: read-out: HTT CJ IC50; for AC50: increase in alternative junction mRNA, read-out: HTT AJ AC50
Procedure, shortened: as §2

[4] = tested on: SMN2 mRNA; assay: RT-qPCR splicing assay, gene panel, SMN2 canonical junction (CJ) mRNA; conditions: Homo sapiens; decrease in CJ mRNA levels; larger panel of genes; Table 3; read-out: SMN2 CJ IC50
Procedure, shortened: as §1

[5] = tested on: K562 cells; assay: Cell Titer Glo 2.0 cell viability assay; conditions: Homo sapiens, 500 cells/well, 72 hours
Procedure, shortened: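 K562 cells (500/well) in IMDM with 10% FBS were exposed to serially diluted compounds at 0.1% DMSO final. After 72 h at 37° C, 5% CO2, viability was read by CellTiter-Glo 2.0 luminescence, with medium-only blanks.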

[6] = decrease in CJ mRNA levels, larger panel of genes, Table 3
[7] = decrease in canonical junction mRNA, A673 or K562 cells, 24 hours treatment, Table 2
[8] = A673 or K562 cells, 24 hours treatment, Table 2

Row | SMILES | IC50 [1] [µM] | IC50 [2, 6] [µM] | IC50 [2, 7] [µM] | IC50 [3, 6] [µM] | IC50 [3, 7] [µM] | IC50 [4] [µM] | GI50 [5] [µM] | AC50 [2, 8] [µM] | AC50 [3, 8] [µM]
1 | Cc1nc2c(F)cc(-c3cc(F)c4nn(C5CCNCC5)cc4c3)cc2o1 [Compound 136, 4-fluoro-6-[7-fluoro-2-(4-piperidyl)indazol-5-yl]-2-methyl-1,3-benzoxazole] | 0.1 to 1 | 0.1 to 1 | 0.1 to 1 | < 0.1 | < 0.1 | < 0.1 | 0.1 to 1 | 0.1 to 1 | < 0.1
2 | Cc1cn2nc(-c3ccc4nn(C5CCNCC5)cc4n3)cc(C)c2n1 [Compound 138, 2,8-dimethyl-6-[2-(4-piperidyl)pyrazolo[4,3-b]pyridin-5-yl]imidazo[1,2-b]pyridazine] | 0.1 to 1 | 0.1 to 1 | 0.1 to 1 | < 0.1 | < 0.1 | < 0.1 | 1 to 10 | 1 to 10 | 0.1 to 1
3 | COC1=C(C)C2N=C(C)OC2C=C1c1cc(F)c2nn(C3CCNCC3)cc2n1 (stereo not drawn) [Compound 144] | > 10 | > 10 | > 10 | > 10 | > 10 | 1 to 10 | 1 to 10 | > 10 | > 10
4 | Cn1cc2cc(-c3cc(F)c4nn(C5CCNCC5)cc4c3)ccc2n1 [Compound 145, 7-fluoro-5-(2-methylindazol-5-yl)-2-(4-piperidyl)indazole] | 0.1 to 1 | 1 to 10 | 1 to 10 | 0.1 to 1 | 0.1 to 1 | < 0.1 | 1 to 10 | 0.1 to 1 | 0.1 to 1
5 | CCN1CCC(n2cc3cc(-c4cc(C)c5nc(C)cn5n4)cc(F)c3n2)CC1 [Compound 146, 6-[2-(1-ethyl-4-piperidyl)-7-fluoro-indazol-5-yl]-2,8-dimethyl-imidazo[1,2-b]pyridazine] | 0.1 to 1 | 0.1 to 1 | 0.1 to 1 | < 0.1 | < 0.1 | < 0.1 | 0.1 to 1 | 0.1 to 1 | < 0.1
6 | Cn1cc2cc(-c3ccc4cn(C5CCNCC5)nc4c3)cc(F)c2n1 [Compound 148, 7-fluoro-2-methyl-5-[2-(4-piperidyl)indazol-6-yl]indazole] | > 10 | > 10 | > 10 | 1 to 10 | 1 to 10 | 1 to 10 | > 10 | > 10 | > 10

Further lines, with some results ahead:

Row | IC50 [1] [µM] | IC50 [2, 6] [µM] | IC50 [2, 7] [µM] | IC50 [3, 6] [µM] | IC50 [3, 7] [µM] | IC50 [4] [µM] | GI50 [5] [µM] | SMILES | AC50 [2, 8] [µM] | AC50 [3, 8] [µM]
7 | 0.1 to 1 | 0.1 to 1 | 0.1 to 1 | < 0.1 | < 0.1 | < 0.1 | 0.1 to 1 | Cc1nc2c(C)cc(-c3cc(F)c4nn(C5CCNCC5)cc4c3)cc2o1 [Compound 137, 6-[7-fluoro-2-(4-piperidyl)indazol-5-yl]-2,4-dimethyl-1,3-benzoxazole] | 0.1 to 1 | < 0.1
8 | 1 to 10 | 1 to 10 | 1 to 10 | 1 to 10 | 1 to 10 | 0.1 to 1 | > 10 | COc1cc(-c2cc3cn(C)nc3cc2O)nc2cn(C3CCNCC3)nc12 [Compound 140, 5-[7-methoxy-2-(4-piperidyl)pyrazolo[4,3-b]pyridin-5-yl]-2-methyl-indazol-6-ol] | 1 to 10 | 1 to 10
9 | 0.1 to 1 | 0.1 to 1 | 0.1 to 1 | 0.1 to 1 | 0.1 to 1 | 0.1 to 1 | 0.1 to 1 | Cc1cn2nc(-c3cc4cn(C5CCNCC5)nc4cn3)cc(C)c2n1 [Compound 147, 2,8-dimethyl-6-[2-(4-piperidyl)pyrazolo[3,4-c]pyridin-5-yl]imidazo[1,2-b]pyridazine] | 0.1 to 1 | 0.1 to 1
